According to patent publication US12528826B2, “[1,4]oxazepino[2,3-c]quinolinone derivatives as BCL6 inhibitors” (Cancer Research Technology Limited, priority 2019, dated 2026):

target: T1, Trx-6×His-BCL6 (human BCL6 BTB domain covering amino-acid sequence 5-129) (Homo sapiens, UniProt P41182); assay: HTRF assay (BCL6 / BCOR peptide); assay type: binding; conditions: 1 nM Trx-6×His-BCL6, 300 nM BCOR-AF633 peptide, 2 hours incubation at room temperature
T1 construct: made in house
Description: After 2 hours incubation at room temperature the plate was read on a Pherastar FSX (BMG Labtech) plate reader equipped with 337 nm laser excitation filter, a first emission filter at 620 nm and a second emission filter at 665 nm. The % inhibition at each concentration was calculated by normalising FRET ratio to the appropriate high (DMSO with all reagents) and low (DMSO without BCL6) controls.

Question: `Cn1c(=O)c2c(c3cc(Nc4ccnc(Cl)c4F)ccc31)N[C@@H](C1CC1)C(F)(F)CO2` [Example 4d, (S)-10-((2-chloro-3-fluoropyridin-4-yl)amino)-2-cyclopropyl-3,3-difluoro-7-methyl-1,2,3,4-tetrahydro-[1,4]oxazepino[2,3-c]quinolin-6(7H)-one] was tested. Which “HTRF avg pIC50” value did it give?
Answer: 7.78

same assay, conditions: 1 nM Trx-6×His-BCL6, 300 nM BCOR-AF633 peptide, 2 hours incubation at room temperature; read-out: HTRF avg pIC50 (converted)

Question: With `Cn1c(=O)c2c(c3cc(Nc4nc(N5CCC(F)(F)C(CC(=O)N6CC(F)(F)C6)C5)ncc4Cl)ccc31)N[C@@H](C1CC1)C(F)(F)CO2` (mixture of isomers) [Example 12x20, (2S)-10-((5-chloro-2-(3-(2-(3,3-difluoroazetidin-1-yl)-2-oxoethyl)-4,4-difluoropiperidin-1-yl)pyrimidin-4-yl)amino)-2-cyclopropyl-3,3-difluoro-7-methyl-1,2,3,4-tetrahydro-[1,4]oxazepino[2,3-c]quinolin-6(7H)-one] as the compound, how does the IC50 read?
Answer: 3.72 nM

Question: How did the IC50 turn out when `Cn1c(=O)c2c(c3cc(Nc4nc(N5C[C@@H](O)C[C@@H](F)C5)ncc4Cl)ccc31)N[C@@H](C1CC1)C(F)(F)CO2` [Example 9a-2, (S)-10-((5-chloro-2-((3R,5S)-3-fluoro-5-hydroxypiperidin-1-yl)pyrimidin-4-yl)amino)-2-cyclopropyl-3,3-difluoro-7-methyl-1,2,3,4-tetrahydro-[1,4]oxazepino[2,3-c]quinolin-6(7H)-one] was run?
Answer: 2.95 nM

Question: Which IC50 does the source give for `Cn1c(=O)c2c(c3cc(Nc4nc(N5C[C@H](O)C[C@H](O)C5)ncc4Cl)ccc31)N[C@@H](C1CC1)C(F)(F)CO2` [Example 11e, (S)-10-((5-chloro-2-((3R,5S)-3,5-dihydroxypiperidin-1-yl)pyrimidin-4-yl)amino)-2-cyclopropyl-3,3-difluoro-7-methyl-1,2,3,4-tetrahydro-[1,4]oxazepino[2,3-c]quinolin-6(7H)-one] here?
Answer: 0.871 nM

Question: How did the IC50 turn out when `Cn1c(=O)c2c(c3cc(Nc4nc(N5C[C@H]6CC[C@@H](C5)O6)ncc4F)ccc31)N[C@@H](C1CC1)C(F)(F)CO2` [Example 13p11, (S)-10-((2-((1R,5S)-8-oxa-3-azabicyclo[3.2.1]octan-3-yl)-5-fluoropyrimidin-4-yl)amino)-2-cyclopropyl-3,3-difluoro-7-methyl-1,2,3,4-tetrahydro-[1,4]oxazepino[2,3-c]quinolin-6(7H)-one] was run?
Answer: 7.24 nM

Question: For `Cn1c(=O)c2c(c3cc(Nc4nc(N5CC(C#N)C5)ncc4Cl)ccc31)N[C@@H](C1CC1)C(F)(F)CO2` [Example 11p, (S)-1-(5-chloro-4-((2-cyclopropyl-3,3-difluoro-7-methyl-6-oxo-1,2,3,4,6,7-hexahydro-[1,4]oxazepino[2,3-c]quinolin-10-yl)amino)pyrimidin-2-yl)azetidine-3-carbonitrile], which IC50 is on record?
Answer: 4.07 nM

Question: Which IC50 does the source give for `CC1CN(c2ncc(F)c(Nc3ccc4c(c3)c3c(c(=O)n4C)OCC(F)(F)[C@H](C4CC4)N3)n2)CC(C)C1(F)F` (stereo partly drawn) [Example 13p01, (2S)-2-cyclopropyl-10-((2-(4,4-difluoro-3,5-dimethylpiperidin-1-yl)-5-fluoropyrimidin-4-yl)amino)-3,3-difluoro-7-methyl-1,2,3,4-tetrahydro-[1,4]oxazepino[2,3-c]quinolin-6(7H)-one] here?
Answer: 85.1 nM

Question: With `C[C@@H]1CCCN(c2ncc(Cl)c(Nc3ccc4c(c3)c3c(c(=O)n4C)OCC(F)(F)[C@H](C4CC4)N3)n2)C1` [Example 1l, (S)-10-((5-chloro-2-((R)-3-methylpiperidin-1-yl)pyrimidin-4-yl)amino)-2-cyclopropyl-3,3-difluoro-7-methyl-1,2,3,4-tetrahydro-[1,4]oxazepino[2,3-c]quinolin-6(7H)-one] as the compound, how does the IC50 read?
Answer: 25.7 nM

Question: For `CCNC(=O)[C@@H]1C[C@H](C)CN(c2ncc(Cl)c(Nc3ccc4c(c3)c3c(c(=O)n4C)OCC(F)(F)[C@H](C4CC4)N3)n2)C1` (racemic) [Example 9c, (3R,5S)-1-(5-chloro-4-(((S)-2-cyclopropyl-3,3-difluoro-7-methyl-6-oxo-1,2,3,4,6,7-hexahydro-[1,4]oxazepino[2,3-c]quinolin-10-yl)amino)pyrimidin-2-yl)-N-ethyl-5-methylpiperidine-3-carboxamide; (3S,5R)-1-(5-chloro-4-(((S)-2-cyclopropyl-3,3-difluoro-7-methyl-6-oxo-1,2,3,4,6,7-hexahydro-[1,4]oxazepino[2,3-c]quinolin-10-yl)amino)pyrimidin-2-yl)-N-ethyl-5-methylpiperidine-3-carboxamide], which IC50 is on record?
Answer: 3.47 nM

Question: For `Cn1c(=O)c2c(c3cc(Nc4nc(N5C[C@H](F)C[C@H](F)C5)ncc4Cl)ccc31)N[C@@H](C1CC1)C(F)(F)CO2` [Example 9s, (S)-10-((5-chloro-2-((3S,5R)-3,5-difluoropiperidin-1-yl)pyrimidin-4-yl)amino)-2-cyclopropyl-3,3-difluoro-7-methyl-1,2,3,4-tetrahydro-[1,4]oxazepino[2,3-c]quinolin-6(7H)-one], which IC50 is on record?
Answer: 19.5 nM

Question: `CCNC(=O)C1CN(c2ncc(Cl)c(Nc3ccc4c(c3)c3c(c(=O)n4C)OCC(F)(F)[C@H](C4CC4)N3)n2)CCC1(F)F` (mixture of isomers) [Example 9j, (R)-1-(5-chloro-4-(((S)-2-cyclopropyl-3,3-difluoro-7-methyl-6-oxo-1,2,3,4,6,7-hexahydro-[1,4]oxazepino[2,3-c]quinolin-10-yl)amino)pyrimidin-2-yl)-N-ethyl-4,4-difluoropiperidine-3-carboxamide; (S)-1-(5-chloro-4-(((S)-2-cyclopropyl-3,3-difluoro-7-methyl-6-oxo-1,2,3,4,6,7-hexahydro-[1,4]oxazepino[2,3-c]quinolin-10-yl)amino)pyrimidin-2-yl)-N-ethyl-4,4-difluoropiperidine-3-carboxamide] was tested. Which IC50 did it give?
Answer: 4.17 nM

Question: How did the IC50 turn out when `C[C@H]1C[C@@H](O)CN(c2cc(Nc3ccc4c(c3)c3c(c(=O)n4C)OCC(F)(F)[C@H](C4CC4)N3)c(F)cn2)C1` [Example 13f05, (S)-2-cyclopropyl-3,3-difluoro-10-((5-fluoro-2-((3R,5S)-3-hydroxy-5-methylpiperidin-1-yl)pyridin-4-yl)amino)-7-methyl-1,2,3,4-tetrahydro-[1,4]oxazepino[2,3-c]quinolin-6(7H)-one] was run?
Answer: 6.61 nM

Question: Which IC50 does the source give for `C[C@H]1CCCN(c2ncc(Cl)c(Nc3ccc4c(c3)c3c(c(=O)n4C)OCC(F)(F)[C@H](C4CC4)N3)n2)C1` [Example 1k, (S)-10-((5-chloro-2-((S)-3-methylpiperidin-1-yl)pyrimidin-4-yl)amino)-2-cyclopropyl-3,3-difluoro-7-methyl-1,2,3,4-tetrahydro-[1,4]oxazepino[2,3-c]quinolin-6(7H)-one] here?
Answer: 38 nM

Question: `CCC1CCN(c2ncc(Cl)c(Nc3ccc4c(c3)c3c(c(=O)n4C)OCC(F)(F)[C@H](C4CC4)N3)n2)C1` (mixture of isomers) [Example 11y, (S)-10-((5-chloro-2-((R)-3-ethylpyrrolidin-1-yl)pyrimidin-4-yl)amino)-2-cyclopropyl-3,3-difluoro-7-methyl-1,2,3,4-tetrahydro-[1,4]oxazepino[2,3-c]quinolin-6(7H)-one:(S)-10-((5-chloro-2-((S)-3-ethylpyrrolidin-1-yl)pyrimidin-4-yl)amino)-2-cyclopropyl-3,3-difluoro-7-methyl-1,2,3,4-tetrahydro-[1,4]oxazepino[2,3-c]quinolin-6(7H)-one (1:1)] was tested. Which IC50 did it give?
Answer: 46.8 nM

Question: Which IC50 does the source give for `Cn1c(=O)c2c(c3cc(Nc4nc(N5C[C@H](F)C[C@H]5CO)ncc4Cl)ccc31)N[C@@H](C1CC1)C(F)(F)CO2` [Example 12x48b, (S)-10-((5-chloro-2-((2S,4R)-4-fluoro-2-(hydroxymethyl)pyrrolidin-1-yl)pyrimidin-4-yl)amino)-2-cyclopropyl-3,3-difluoro-7-methyl-1,2,3,4-tetrahydro-[1,4]oxazepino[2,3-c]quinolin-6(7H)-one] here?
Answer: 18.6 nM

Question: With `Cn1c(=O)c2c(c3cc(Nc4nc(N5CC6CC(C5)O6)ncc4Cl)ccc31)N[C@@H](C1CC1)C(F)(F)CO2` [Example 12d, (2S)-10-((2-(6-oxa-3-azabicyclo[3.1.1]heptan-3-yl)-5-chloropyrimidin-4-yl)amino)-2-cyclopropyl-3,3-difluoro-7-methyl-1,2,3,4-tetrahydro-[1,4]oxazepino[2,3-c]quinolin-6(7H)-one] as the compound, how does the IC50 read?
Answer: 4.9 nM

Question: `CC1CN(c2ncc(Cl)c(Nc3ccc4c(c3)c3c(c(=O)n4C)OCC(F)(F)[C@H](C4CC4)N3)n2)CC(C)S1` (stereo partly drawn) [Example 12x06, (2S)-10-((5-chloro-2-(2,6-dimethylthiomorpholino)pyrimidin-4-yl)amino)-2-cyclopropyl-3,3-difluoro-7-methyl-1,2,3,4-tetrahydro-[1,4]oxazepino[2,3-c]quinolin-6(7H)-one] was tested. Which IC50 did it give?
Answer: 30.2 nM

Question: How did the IC50 turn out when `CCN(CC1CN(c2ncc(Cl)c(Nc3ccc4c(c3)c3c(c(=O)n4C)OCC(F)(F)[C@H](C4CC4)N3)n2)CCC1(F)F)C(C)=O` (mixture of isomers) [Example 9k] was run?
Answer: 4.27 nM

Question: Which IC50 does the source give for `CO[C@@H]1C[C@H](C)CN(c2ncc(Cl)c(Nc3ccc4c(c3)c3c(c(=O)n4C)OCC(F)(F)[C@H](C4CC4)N3)n2)C1` [Example 12x05, (S)-10-((5-chloro-2-((3R,5S)-3-methoxy-5-methylpiperidin-1-yl)pyrimidin-4-yl)amino)-2-cyclopropyl-3,3-difluoro-7-methyl-1,2,3,4-tetrahydro-[1,4]oxazepino[2,3-c]quinolin-6(7H)-one] here?
Answer: 3.72 nM

Question: `COC[C@@H]1CCCN1c1ncc(Cl)c(Nc2ccc3c(c2)c2c(c(=O)n3C)OCC(F)(F)[C@H](C3CC3)N2)n1` [Example 12x45a, (S)-10-((5-chloro-2-((S)-2-(methoxymethyl)pyrrolidin-1-yl)pyrimidin-4-yl)amino)-2-cyclopropyl-3,3-difluoro-7-methyl-1,2,3,4-tetrahydro-[1,4]oxazepino[2,3-c]quinolin-6(7H)-one] was tested. Which IC50 did it give?
Answer: 11.2 nM
